Key:
Assay type in all cases: cell-based, human
LNCaP cells [1] = test: MTT assay, LNCaP; settings: for IC50: 72 h, MTT, mean ± SD; for SI LNCaP: SI = IC50 normal cell line (RWPE-1)/IC50 cancer cell line
Method: (§1) MTT analysis was performed as described previously.
(§2) Cell absorbance results were substituted into the formula for the relative MTT level (%). It allows to calculate the viability of cells exposed to the test compounds. Cell viability is the percentage of MTT reduction in cells to which the test compounds were added compared to the control sample, where only the medium was added to the cells.
(§3) The relative MTT level was calculated using the formula: life time [100%] = A/B × 100% where: A—the test sample absorbance; B—the control sample absorbance.
(§4) The statistical analysis was performed using the Statistica 13.0 (StatSoft, Inc, Tulsa, OK, USA) program. Comparison between studied groups was performed by the paired Student’s t-test. Results were expressed as means ± SD, and considered statistically significant at p < 0.05. All data were calculated from 3 separate experiments. IC50 values were calculated using GraphPad Prism 6 software (GraphPad Software, San Diego, CA, USA).

LNCaP cells [2] = test: Apoptosis detection (Annexin V/7-AAD flow cytometry), LNCaP; settings: IC50 concentration, 72 h, % of cells
Method: (§5) Then, a commercially available kit (FITC:Annexin V Apoptosis Detection Kit I; BD Biosciences Pharmingen. San Jose, CA, USA) was used. The medium was removed from the plates and approximately 1 mL of PBS was added to the wells for rinsing, followed by 0.7 mL of trypsin, and left for 3 min. Then, the plate wells were washed twice with 0.5 mL PBS with 2% FBS and next the entire content of the given walls was transferred to test tubes. The tubes were centrifuged for 7 min in a centrifuge at 1700 rpm. The supernatant solution was removed. […] After this time, 0.4 mL of PBS with FBS was added to the tubes and mixed again. […] Annexin V-reactive cells, but not 7-AAD-reactive cells were in the early stage of apoptosis, while cells reactive with both reagents were in late-stage apoptosis or were dead.

RWPE-1 cells [3] = test: MTT assay, normal RWPE-1; settings: mean ± SD
Method: as §1, §2, §3, §4

RWPE-1 cells [4] = test: Apoptosis detection (Annexin V/7-AAD flow cytometry), RWPE-1; settings: IC50 concentration, 72 h, % of cells
Method: as §5

DU145 cells = test: LDH test, DU145; settings: 72 h; tested at 10-60 µM, concentration of quoted value not stated
Method: (§6) Lactate dehydrogenase (LDH) as a cytosolic enzyme determined in culture medium is a marker of cell death. The LDH activity determination was performed after 72 h incubation of cells (1 × 10^4 cells per well) in 96-well plates with the selected conjugates of gradually decreasing concentration according to the procedure mentioned at earlier study by Chrzanowska et al.. The cytotoxicity of test compounds was expressed as % of LDH released from test cells. This parameter is calculated using the formula: cytotoxicity = [A test sample − A “low control”]/[A “high control” − A “low control”] where: A—absorbance, “Low control”—cells in DMEM medium with 2% FBS, “High control”—cells in DMEM with 2% FBS with 1% Triton X-100.

DU-145 cells [5] = test: MTT assay, DU-145; settings: for IC50: MTT, 72 h, mean ± SD; for SI DU-145: SI = IC50 normal cell line (RWPE-1)/IC50 cancer cell line
Method: as §1, §2, §3, §4

DU-145 cells [6] = test: Apoptosis detection (Annexin V/7-AAD flow cytometry), DU-145; settings: IC50 concentration, 72 h, % of cells
Method: as §5

[7] = system: IL-6 release by LNCaP cells; test: Interleukin-6 ELISA, LNCaP; settings: IC50 concentration, 72 h; control 40.1 pg/mL
Method: (§7) The sandwich ELISA assay is used to confirm the presence of interleukin 6 (IL-6) in the test cell line supernatant. Interleukin IL-6 ELISA kit was purchased from Diaclone SAS (Besancon Cedex, France). […] Before starting the test, a standard curve was prepared. An amount of 100 μL of test supernatant samples from the RWPE-1, LNCaP and DU145 cell lines incubated with the tested compounds, control solutions and blank were added to the plate’s wells. Then, 50 µL of diluted biotinylated anti-human interleukin-6 antibody was added to each well. The prepared plate was incubated at room temperature for one hour. At the end of this time, the solution in the plate wells was decanted and rinsed with the washing solution. After repeating the procedure three times, 100 μL solution of streptavidin covalently bound to horseradish peroxidase (HRP) was added to the wells. Then, the plates were incubated for 30 min. The next step was to remove the solution and rinse the plates three times. After adding 100 μL of tetramethylbenzidine (TMB) solution to each well, the plates were incubated for 15 min in the dark. In order to stop the reaction, 100 μL of H2SO4 solution were added. The absorbance of the tested samples was read using a spectrophotometer at 450 nm (Microplate Spectrophotometer Thermo Scientific™ Multiskan™ GO).

[8] = system: IL-6 release by DU145 cells; test: Interleukin-6 ELISA, DU145; settings: IC50 concentration, 72 h; control 134.475 pg/mL
Method: as §7

LNCaP cells [9] = test: LDH test, LNCaP; settings: 72 h; tested at 10-60 µM, concentration of quoted value not stated
Method: as §6

PC3 cells = test: MTT assay, PC3; settings: SI = IC50 normal cell line (RWPE-1)/IC50 cancer cell line
Method: as §1, §2, §3, §4

Row | IC50 (LNCaP cells [1]; Homo sapiens, LNCaP) [µM] | IC50 (DU-145 cells [5]; Homo sapiens, DU-145, 72 h) [µM] | SMILES | IC50 (LNCaP cells [1]) [µM] | Early Apoptosis (%), LNCaP (LNCaP cells [2]) [%] | Late apoptosis (%), LNCaP (LNCaP cells [2]) | Late apoptosis (%), LNCaP (LNCaP cells [2]; listed as CP) [%] | IC50 (RWPE-1 cells [3]; Homo sapiens, RWPE-1, 72 h) [µM] | Early Apoptosis (%), RWPE-1 (RWPE-1 cells [4]) [%] | Late apoptosis (%), RWPE-1 (RWPE-1 cells [4]) [%] | released lactate dehydrogenase, DU145 (DU145 cells) | IC50 (DU-145 cells [5]) [µM] | Early Apoptosis (%), DU145 (DU-145 cells [6]) [%] | Late apoptosis (%), DU145 (DU-145 cells [6]) [%] | IL-6 concentration, LNCaP [7] [pg/mL] | IL-6 concentration, DU145 [8] [pg/mL] | released lactate dehydrogenase, LNCaP (LNCaP cells [9]) | SI LNCaP (LNCaP cells [1]) | IC50 (RWPE-1 cells [3]; 72 h) [µM] | SI DU-145 (DU-145 cells [5]) | SI PC3 (PC3 cells)
1 | > 70 | > 70 | O=C(O)c1cn(C2CC2)c2cc(N3CCNCC3)c(F)cc2c1=O [Ciprofloxacin] | 71.2 ± 3.8 | 26.8 | did not affect the late apoptosis | 0.7 | 72.1 ± 5.2 | 2.9 | 1.4 | 18.5–24.6% | 70.5 ± 3.6 | 20.8 | 0.3 | 28.7 | 119.72 | 18.5–24.6% | – | – | – | –
2 | – | – | N.N.[Cl][Pt][Cl] [Cisplatin] | 1.78 ± 0.74 | – | – | – | – | – | – | – | 1.36 ± 0.69 | – | – | – | – | – | 1.5 | 2.69 ± 1.1 | 2 | 1.78
3 | 0.48 ± 0.21 | 0.59 ± 0.14 | COc1cccc2c1C(=O)c1c(O)c3c(c(O)c1C2=O)C[C@@](O)(C(=O)CO)C[C@@H]3O[C@H]1C[C@H](N)[C@H](O)[C@H](C)O1 [Doxorubicin] | – | – | – | – | 0.65 ± 0.1 | – | – | – | – | – | – | – | – | – | 1.3 | – | 1.1 | 2

Source: publication PMC8773529 (Cancers, 2022)
